Assay results from US9334290B2, “Substituted tetrahydrocarbazole and carbazole carboxamide compounds” (Bristol-Myers Squibb Company, priority 2013, dated 2016).
Like-named read-outs stand apart in the source and are kept apart here.

Experiments:
[1] = test system: CD69 expression on B cells in human whole blood; assay: Whole blood assay of BCR-stimulated CD69 expression on B cells; type: cell-based; details: BCR-stimulated, read-out: CD69 IC50 values
Jak2 tyrosine kinase = Jak2 tyrosine kinase (Homo sapiens (Human), UniProt O60674); assay: Jak2 tyrosine kinase assay; type: biochemical
Jak2 tyrosine kinase, sequence (O60674 whole entry): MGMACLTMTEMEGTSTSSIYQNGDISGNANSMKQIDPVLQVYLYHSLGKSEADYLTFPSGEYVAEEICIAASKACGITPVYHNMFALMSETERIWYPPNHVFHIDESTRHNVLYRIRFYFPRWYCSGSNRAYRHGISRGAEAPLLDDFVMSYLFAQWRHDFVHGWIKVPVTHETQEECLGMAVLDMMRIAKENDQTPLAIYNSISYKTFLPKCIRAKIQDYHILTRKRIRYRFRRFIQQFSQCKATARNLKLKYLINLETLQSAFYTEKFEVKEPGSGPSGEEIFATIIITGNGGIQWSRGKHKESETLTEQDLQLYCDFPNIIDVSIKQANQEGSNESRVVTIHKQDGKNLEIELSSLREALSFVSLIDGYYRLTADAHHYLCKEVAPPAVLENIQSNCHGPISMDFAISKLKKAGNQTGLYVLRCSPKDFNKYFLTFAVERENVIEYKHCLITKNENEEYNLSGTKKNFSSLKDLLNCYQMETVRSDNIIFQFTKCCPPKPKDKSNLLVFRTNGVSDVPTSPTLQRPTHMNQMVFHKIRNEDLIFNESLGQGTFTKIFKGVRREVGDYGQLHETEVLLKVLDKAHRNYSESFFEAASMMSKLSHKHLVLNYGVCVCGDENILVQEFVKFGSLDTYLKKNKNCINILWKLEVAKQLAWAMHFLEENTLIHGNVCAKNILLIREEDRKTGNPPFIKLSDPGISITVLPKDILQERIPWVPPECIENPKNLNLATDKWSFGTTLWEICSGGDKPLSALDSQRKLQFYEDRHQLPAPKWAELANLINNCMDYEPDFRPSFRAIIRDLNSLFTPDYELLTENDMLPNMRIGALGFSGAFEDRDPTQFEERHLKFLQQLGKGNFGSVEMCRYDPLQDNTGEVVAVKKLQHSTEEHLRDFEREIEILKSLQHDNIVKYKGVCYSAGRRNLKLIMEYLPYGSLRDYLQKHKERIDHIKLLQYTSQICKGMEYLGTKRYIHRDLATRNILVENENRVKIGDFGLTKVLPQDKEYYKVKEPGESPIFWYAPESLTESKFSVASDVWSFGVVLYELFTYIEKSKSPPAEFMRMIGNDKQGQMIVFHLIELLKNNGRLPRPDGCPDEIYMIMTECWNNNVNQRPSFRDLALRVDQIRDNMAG

human recombinant Btk = human recombinant Btk (Homo sapiens (Human), UniProt Q06187); assay: Human Recombinant Btk enzyme assay; type: biochemical
human recombinant Btk, sequence (Q06187 whole entry): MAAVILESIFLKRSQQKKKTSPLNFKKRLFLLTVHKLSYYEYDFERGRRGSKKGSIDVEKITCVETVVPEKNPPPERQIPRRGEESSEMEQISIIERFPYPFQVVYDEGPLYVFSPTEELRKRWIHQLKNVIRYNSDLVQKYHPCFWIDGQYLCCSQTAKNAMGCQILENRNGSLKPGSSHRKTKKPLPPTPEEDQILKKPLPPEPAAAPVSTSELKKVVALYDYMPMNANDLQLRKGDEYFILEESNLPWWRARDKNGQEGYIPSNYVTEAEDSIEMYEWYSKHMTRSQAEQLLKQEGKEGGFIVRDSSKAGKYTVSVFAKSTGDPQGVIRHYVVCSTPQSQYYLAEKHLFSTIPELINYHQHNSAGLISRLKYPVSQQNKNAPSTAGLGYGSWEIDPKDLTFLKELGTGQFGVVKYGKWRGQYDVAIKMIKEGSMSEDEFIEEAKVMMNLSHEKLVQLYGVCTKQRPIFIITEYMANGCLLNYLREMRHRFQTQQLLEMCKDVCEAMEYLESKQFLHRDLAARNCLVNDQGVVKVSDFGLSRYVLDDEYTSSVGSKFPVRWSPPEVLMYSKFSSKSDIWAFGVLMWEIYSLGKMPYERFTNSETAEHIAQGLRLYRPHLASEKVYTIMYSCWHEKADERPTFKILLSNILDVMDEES

SMILES	IC50 [1] [nM]	IC50 (Jak2 tyrosine kinase) [nM]	Ratio of Jak2/Btk IC50 values (Jak2 tyrosine kinase; selectivity of Btk over Jak2)	IC50 (human recombinant Btk; read-out: Btk IC50 value) [nM]	IC50 ([1]; Homo sapiens, B-cell) [nM]	Ratio of Jak2/Btk IC50 values (Jak2 tyrosine kinase; Jak2 IC50 divided by Btk IC50, larger value = more selective for Btk)	IC50 (human recombinant Btk; human recombinant Btk 1 nM, ATP 20 μM, read-out: Btk IC50) [nM]
COc1ccc2c(=O)n(-c3cccc(-c4c(Cl)cc(C(N)=O)c5[nH]c6cc(C(C)(C)O)ccc6c45)c3C)c(=O)n(C)c2c1 (single isomer, unassigned) [Example 6]	100	1500	1400	1.1	–	–	–
Cc1c(-c2c(Cl)cc(C(N)=O)c3[nH]c4cc(C(C)(C)O)ccc4c23)cccc1-n1c(=O)[nH]c2c(F)cccc2c1=O [Example 13, 3-Chloro-4-(3-(8-fluoro-2,4-dioxo-1,2-dihydroquinazolin-3(4H)-yl)-2-methylphenyl)-7-(2-hydroxypropan-2-yl)-9H-carbazole-1-carboxamide]	–	–	–	2.9	140	–	–
Cc1c(-c2c(C#N)cc(C(N)=O)c3[nH]c4cc(C(C)(C)O)ccc4c23)cccc1-n1c(=O)c2cccc(F)c2n(C)c1=O (single isomer, unassigned) [Example 15]	–	2400	2400	1	170	–	–
Cc1c(-c2c(C#N)cc(C(N)=O)c3[nH]c4cc(C(C)(C)O)ccc4c23)cccc1-n1c(=O)c2cccc(F)c2n(C)c1=O (single isomer, unassigned) [Example 16]	120	1900	–	0.27	–	–	–
Cc1c(-c2c(Cl)cc(C(N)=O)c3[nH]c4cc(C(C)(C)O)ccc4c23)cccc1-n1c(=O)cc2sccn2c1=O (single isomer, unassigned) [Example 39]	130	370	1200	0.31	–	–	–
Cc1c(-c2c(Cl)cc(C(N)=O)c3[nH]c4cc(C(C)(C)O)ccc4c23)cccc1-n1c(=O)cc2sccn2c1=O (single isomer, unassigned) [Example 38]	53	300	880	0.34	–	–	–
Cc1c(-c2c(Cl)cc(C(N)=O)c3[nH]c4c(c23)CC[C@H](C(C)(C)O)C4)cccc1-n1c(=O)[nH]c2c(F)cc(F)cc2c1=O (single isomer, unassigned) [Example 57]	–	270	1100	0.25	–	–	–
Cc1c(-c2c(F)cc(C(N)=O)c3[nH]c4cc(C(C)(C)O)ccc4c23)cccc1-n1c(=O)cc2c(Cl)cccn2c1=O (single isomer, unassigned) [Example 30]	–	–	–	0.22	64	–	–
Cc1c(-c2c(Cl)cc(C(N)=O)c3[nH]c4cc(C(C)(C)O)ccc4c23)cccc1-n1c(=O)cc2c(F)cccn2c1=O [Example 34, 3-Chloro-4-(3-(5-fluoro-1,3-dioxo-1H-pyrido[1,2-c]pyrimidin-2(3H)-yl)-2-methylphenyl)-7-(2-hydroxypropan-2-yl)-9H-carbazole-1-carboxamide]	–	370	440	0.85	98	–	–
COc1cccn2c(=O)n(-c3cccc(-c4c(Cl)cc(C(N)=O)c5[nH]c6cc(C(C)(C)O)ccc6c45)c3C)c(=O)cc12 [Example 37, 3-Chloro-7-(2-hydroxypropan-2-yl)-4-(3-(5-methoxy-1,3-dioxo-1H-pyrido[1,2-c]pyrimidin-2(3H)-yl)-2-methylphenyl)-9H-carbazole-1-carboxamide]	–	630	690	0.91	–	–	–
Cc1c(-c2c(F)cc(C(N)=O)c3[nH]c4cc(CCO)ccc4c23)cccc1-n1c(=O)cc2c(F)cccn2c1=O [Example 70]	–	550	930	0.59	–	–	–
[2H]C([2H])([2H])n1c(=O)n(-c2cccc(-c3c(F)cc(C(N)=O)c4[nH]c5c(c34)CC[C@H](C(C)(C)O)C5)c2C)c(=O)c2cccc(F)c21 (single isomer, unassigned) [Example 62]	–	> 2000	>4900	0.41	–	–	–
Cc1c(-c2c(F)cc(C(N)=O)c3[nH]c4cc(C(C)(C)O)ccc4c23)cccc1-n1c(=O)cc2c(F)cccn2c1=O (single isomer, unassigned) [Example 40]	–	830	1800	0.46	19	–	–
Cc1c(-c2c(Cl)cc(C(N)=O)c3[nH]c4cc(C(C)(C)O)ccc4c23)cccc1-n1c(=O)cc2c(F)cccn2c1=O (single isomer, unassigned) [Example 35]	–	800	3200	0.25	31	–	–
Cc1c(-c2c(F)cc(C(N)=O)c3[nH]c4cc(C(C)(C)O)ccc4c23)cccc1-n1c(=O)cc2c(Cl)cccn2c1=O (single isomer, unassigned) [Example 31]	37	–	–	0.19	–	–	–
Cc1c(-c2c(F)cc(C(N)=O)c3[nH]c4c(c23)CC[C@H](C(C)(C)O)C4)cccc1-n1c(=O)c2cccc(F)c2n(C)c1=O (atropisomer, axis not shown) [Example 28, 6-Fluoro-5-(R)-(3-(S)-(8-fluoro-1-methyl-2,4-dioxo-1,2-dihydroquinazolin-3(4H)-yl)-2-methylphenyl)-2-(S)-(2-hydroxypropan-2-yl)-2,3,4,9-tetrahydro-1H-carbazole-8-carboxamide]	–	32000	59000	0.54	–	–	–
COc1ccc2c(=O)n(-c3cccc(-c4c(Cl)cc(C(N)=O)c5[nH]c6cc(C(C)(C)O)ccc6c45)c3C)c(=O)n(C)c2c1 (single isomer, unassigned) [Example 5]	–	> 2000	>950	2.1	170	–	–
Cc1c(-c2c(F)cc(C(N)=O)c3[nH]c4c(c23)CC[C@H](C(C)(C)O)C4)cccc1-n1c(=O)cc2c(F)cccn2c1=O (single isomer, unassigned) [Example 68]	–	350	630	0.56	–	–	–
Cc1nc(C(N)=O)c2[nH]c3cc(C(C)(C)O)ccc3c2c1-c1cccc(-n2cnc3ccccc3c2=O)c1C [Comparative Example 76, 7-(2-Hydroxypropan-2-yl)-3-methyl-4-(2-methyl-3-(4-oxoquinazolin-3(4H)-yl)phenyl)-9H-pyrido[3,4-b]indole-1-carboxamide, reference compound]	–	200	29	6.9	–	29	6.9
Cc1c(-c2c(Cl)cc(C(N)=O)c3[nH]c4cc(C(C)(C)O)ccc4c23)cccc1-n1c(=O)[nH]c2c(F)cccc2c1=O (single isomer, unassigned) [Example 14]	–	–	–	1.2	20	–	–
Cc1c(-c2c(F)cc(C(N)=O)c3[nH]c4c(c23)CC[C@@H](C(C)(C)O)C4)cccc1-n1c(=O)c2cccc(F)c2n(C)c1=O (atropisomer, axis not shown) [Example 27, 6-Fluoro-5-(R)-(3-(S)-(8-fluoro-1-methyl-2,4-dioxo-1,2-dihydroquinazolin-3(4H)-yl)-2-methylphenyl)-2-(R)-(2-hydroxypropan-2-yl)-2,3,4,9-tetrahydro-1H-carbazole-8-carboxamide]	150	> 2000	–	2.2	–	–	–
Cc1c(-c2c(F)cc(C(N)=O)c3[nH]c4cc(C(C)(C)O)ccc4c23)cccc1-n1c(=O)cc2c(F)cccn2c1=O (single isomer, unassigned) [Example 41]	22	800	4000	0.2	–	–	–
Cc1c(-c2c(F)cc(C(N)=O)c3[nH]c4c(c23)CC[C@H](C(C)(C)O)C4)cccc1-n1c(=O)cc2c(F)cccn2c1=O (single isomer, unassigned) [Example 69]	150	9500	11000	0.84	–	–	–
Cc1c(-c2c(Cl)cc(C(N)=O)c3[nH]c4cc(C(C)(C)O)ccc4c23)cccc1-n1c(=O)cc2c(F)cccn2c1=O (single isomer, unassigned) [Example 36]	28	450	1600	0.28	–	–	–
